Each structure is given as a SMILES string. A value given as a limit tells only on which side of the number the result lay.

In general, IC50 refers to the midpoint of a concentration-inhibition curve. Read a low IC50 as greater potency in that assay.

Assay [1] concerns the target full length human TREX1 (Homo sapiens (Human), UniProt Q9NSU2). As to the kind of experiment: TREX1 Biochemical Assay (fluorescence assay measuring degradation of dsDNA substrate). The note with it: 150 pM TREX1, 60 nM dsDNA substrate, 25 minutes at room temperature. The protocol: Degradation of the dsDNA liberates free fluorophore to produce a fluorescent signal. Specifically, 7.5 μL of N-terminally His-Tev tagged full length human TREX1 (expressed in E. coli and purified in house) in reaction buffer (50 mM Tris (pH 7.4), 150 mM NaCl, 2 mM DTT, 0.1 mg/mL BSA, 0.01% (v/v) Tween-20 and 100 mM MgCl2 were added to a 384-well Black ProxiPlate Plus (Perkin Elmer) which already contained compound (150 nL) at varying concentrations as a 10 point dose-response in DMSO. To this was added 7.5 μL of dsDNA substrate (Strand A: 5′ TEX615/GCT AGG CAG 3′; Strand B: 5′ CTG CCT AGC/IAbRQSp (Integrated DNA Technologies)) in reaction buffer. Final concentrations were 150 pM TREX1, 60 nM dsDNA substrate in reaction buffer with 1.0% DMSO (v/v). After 25 minutes at room temperature, reactions were quenched by the addition of 5 μL of stop buffer (same as reaction buffer plus 200 mM EDTA). Final concentrations in the quenched reaction were 112.5 pM TREX1, 45 nM DNA and 50 mM EDTA in a volume of 20 μL. After a 5-minute incubation at room temperature, plates were read in a laser sourced Envision (Perkin-Elmer), measuring fluorescence at 615 nm following excitation w/570 nm light. IC50 values were calculated by comparing the measured fluorescence at 615 nm ratio relative to control wells pre-quenched w/stop buffer (100% inhibition) and no inhibitor (0% inhibition) controls as using non-linear least square four parameter fits and either Genedata or GraphPad Prism (GraphPad Software, Inc.).

For assay [2], the target named is human TREX2 (residues M44-A279) (Homo sapiens (Human), UniProt Q9BQ50). Nature of the assay: TREX2 Biochemical Assay (fluorescence assay measuring degradation of dsDNA substrate). The note with it: 2.5 nM TREX2, 60 nM dsDNA substrate, 25 minutes at room temperature. The protocol:
Degradation of the dsDNA liberates free fluorophore to produce a fluorescent signal. Specifically, 7.5 μL of N-terminally His-Tev tagged human TREX2 (residues M44-A279, expressed in E. coli and purified in house) in reaction buffer (50 mM Tris (pH 7.4), 150 mM NaCl, 2 mM DTT, 0.1 mg/mL BSA, 0.01% (v/v) Tween-20 and 100 mM MgCl2) was added to a 384-well Black ProxiPlate Plus (Perkin Elmer) which already contained compound (150 nL) at varying concentrations as a 10 point dose-response in DMSO. To this was added 7.5 μL of dsDNA substrate (Strand A: 5′ TEX615/GCT AGG CAG 3′; Strand B: 5′ CTG CCT AGC/IAbRQSp (IDT)) in reaction buffer. Final concentrations were 2.5 nM TREX2, 60 nM dsDNA substrate in reaction buffer with 1.0% DMSO (v/v). After 25 minutes at room temperature, reactions were quenched by the addition of 5 μL of stop buffer (same as reaction buffer plus 200 mM EDTA). Final concentrations in the quenched reaction mixture were […] TREX2, 45 nM DNA and 50 mM EDTA in a volume of 20 μL. After a 5-minute incubation at room temperature, plates were read in a laser sourced Envision (Perkin-Elmer), measuring fluorescence at 615 nm following excitation w/570 nm light. IC50 values were calculated by comparing the measured fluorescence at 615 nm ratio relative to control wells pre-quenched w/stop buffer (100% inhibition) and no inhibitor (0% inhibition) controls as using non-linear least square four parameter fits and either Genedata or GraphPad Prism (GraphPad Software, Inc.).

Sequence of human TREX2 (residues M44-A279) (Q9BQ50 whole entry, the tested form may be a part): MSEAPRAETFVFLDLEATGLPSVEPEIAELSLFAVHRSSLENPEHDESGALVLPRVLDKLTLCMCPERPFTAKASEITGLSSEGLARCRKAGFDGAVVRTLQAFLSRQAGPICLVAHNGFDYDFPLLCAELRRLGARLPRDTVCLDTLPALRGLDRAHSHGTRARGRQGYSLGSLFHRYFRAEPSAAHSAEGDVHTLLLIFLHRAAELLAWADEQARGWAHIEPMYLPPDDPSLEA
Sequence of full length human TREX1 (Q9NSU2 whole entry): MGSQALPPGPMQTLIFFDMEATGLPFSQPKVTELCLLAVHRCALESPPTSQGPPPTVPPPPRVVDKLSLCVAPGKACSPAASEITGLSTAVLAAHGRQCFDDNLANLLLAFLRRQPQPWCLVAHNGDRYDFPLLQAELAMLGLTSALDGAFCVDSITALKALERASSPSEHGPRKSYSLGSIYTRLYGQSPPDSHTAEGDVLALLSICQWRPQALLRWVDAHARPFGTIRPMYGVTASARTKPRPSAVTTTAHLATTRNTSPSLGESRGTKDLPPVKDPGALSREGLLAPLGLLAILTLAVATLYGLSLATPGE

Turning to `Cn1c(C(NC(=O)OCc2ccccc2)c2ccc(Br)cc2)nc(C(=O)Nc2cnoc2)c(O)c1=O` (stereo not drawn) [Example 24, benzyl ((4-bromophenyl)(5-hydroxy-4-(isoxazol-4-ylcarbamoyl)-1-methyl-6-oxo-1,6-dihydropyrimidin-2-yl)methyl)carbamate], the IC50 in assay [1] was 100 to 1000 nM; in assay [2], over 100 µM.

`Cc1cc(C)cc(-c2nc(C(=O)Nc3cnoc3)c(O)c(=O)n2C)c1` [Example 25, 2-(3,5-dimethylphenyl)-5-hydroxy-N-(isoxazol-4-yl)-1-methyl-6-oxo-1,6-dihydropyrimidine-4-carboxamide]: the figures for the IC50 in assay [1] and in assay [2] were 100 to 1000 nM and 1 to 10 µM, respectively.

Take `Cn1c(Cc2ccccn2)nc(C(=O)Nc2cnoc2)c(O)c1=O` [Example 26, 5-hydroxy-N-(isoxazol-4-yl)-1-methyl-6-oxo-2-(pyridin-2-ylmethyl)-1,6-dihydropyrimidine-4-carboxamide]: the results for the IC50 in assay [1] and in assay [2] were 1000 to 10000 nM and 10 to 100 µM, respectively.

In the case of `Cn1c(-c2ccccn2)nc(C(=O)Nc2cnoc2)c(O)c1=O` [Example 27, 5-hydroxy-N-(isoxazol-4-yl)-1-methyl-6-oxo-2-(pyridin-2-yl)-1,6-dihydropyrimidine-4-carboxamide], the IC50 was over 10000 nM in assay [1] and over 100 µM in assay [2].

Consider `Cn1c(N2CCCCC2)nc(C(=O)Nc2cnoc2)c(O)c1=O` [Example 28, 5-hydroxy-N-(isoxazol-4-yl)-1-methyl-6-oxo-2-(piperidin-1-yl)-1,6-dihydropyrimidine-4-carboxamide], for which the results for the IC50 in assay [1] and in assay [2] were 100 to 1000 nM and 10 to 100 µM, respectively.

In the case of `Cn1c(-c2cccnc2)nc(C(=O)Nc2cnoc2)c(O)c1=O` [Example 29, 5-hydroxy-N-(isoxazol-4-yl)-1-methyl-6-oxo-2-(pyridin-3-yl)-1,6-dihydropyrimidine-4-carboxamide], the IC50 in assay [1] lay within 1000 to 10000 nM; in assay [2] it was 10 to 100 µM.

As for `Cn1c(-c2cc(Cl)cc(Cl)c2)nc(C(=O)Nc2cnoc2)c(O)c1=O` [Example 30, 2-(3,5-dichlorophenyl)-5-hydroxy-N-(isoxazol-4-yl)-1-methyl-6-oxo-1,6-dihydropyrimidine-4-carboxamide], the figures for the IC50 in assay [1] and in assay [2] were 100 to 1000 nM and 1 to 10 µM, respectively.

For `Cc1cc(-c2nc(C(=O)Nc3cnoc3)c(O)c(=O)n2C)cc(N2CCOCC2)c1` [Example 31, 5-hydroxy-N-(isoxazol-4-yl)-1-methyl-2-(3-methyl-5-morpholinophenyl)-6-oxo-1,6-dihydropyrimidine-4-carboxamide], the IC50 in assay [1] was in the range of 100 to 1000 nM; in assay [2], 1 to 10 µM.

For `Cc1cc(Nc2cnn(C)c2)cc(-c2nc(C(=O)Nc3cnoc3)c(O)c(=O)n2C)c1` [Example 32, 5-hydroxy-N-(isoxazol-4-yl)-1-methyl-2-(3-methyl-5-((1-methyl-1H-pyrazol-4-yl)amino)phenyl)-6-oxo-1,6-dihydropyrimidine-4-carboxamide], the IC50 in assay [1] fell in the range of 100 to 1000 nM; in assay [2], 1 to 10 µM.

Consider `Cc1cc(-c2nc(C(=O)Nc3cnoc3)c(O)c(=O)n2C)cc(N2CCN(C)CC2)c1` [Example 33, 5-hydroxy-N-(isoxazol-4-yl)-1-methyl-2-(3-methyl-5-(4-methylpiperazin-1-yl)phenyl)-6-oxo-1,6-dihydropyrimidine-4-carboxamide], for which the IC50 in assay [1] lay in the range of 100 to 1000 nM; in assay [2], 10 to 100 µM.

Consider `Cc1cc(Nc2cccc(C)n2)cc(-c2nc(C(=O)Nc3cnoc3)c(O)c(=O)n2C)c1` [Example 34, 5-hydroxy-N-(isoxazol-4-yl)-1-methyl-2-(3-methyl-5-((6-methylpyridin-2-yl)amino)phenyl)-6-oxo-1,6-dihydropyrimidine-4-carboxamide], for which the IC50 in assay [1] lay within 100 to 1000 nM; in assay [2], 1 to 10 µM.

On to `Cc1cc(-c2ccn(C)n2)cc(-c2nc(C(=O)Nc3cnoc3)c(O)c(=O)n2C)c1` [Example 35, 5-hydroxy-N-(isoxazol-4-yl)-1-methyl-2-(3-methyl-5-(1-methyl-1H-pyrazol-3-yl)phenyl)-6-oxo-1,6-dihydropyrimidine-4-carboxamide], for which the IC50 fell in the range of 100 to 1000 nM in assay [1] and 1 to 10 µM in assay [2].

`Cc1cc(C(=O)N(C)C)cc(-c2nc(C(=O)Nc3cnoc3)c(O)c(=O)n2C)c1` [Example 36, 2-(3-(dimethylcarbamoyl)-5-methylphenyl)-5-hydroxy-N-(isoxazol-4-yl)-1-methyl-6-oxo-1,6-dihydropyrimidine-4-carboxamide]: the values for the IC50 in assay [1] and in assay [2] were 100 to 1000 nM and 10 to 100 µM, respectively.

For the molecule `Cc1cc(C(=O)NC2CCOCC2)cc(-c2nc(C(=O)Nc3cnoc3)c(O)c(=O)n2C)c1` [Example 37, 5-hydroxy-N-(isoxazol-4-yl)-1-methyl-2-(3-methyl-5-((tetrahydro-2H-pyran-4-yl)carbamoyl)phenyl)-6-oxo-1,6-dihydropyrimidine-4-carboxamide], the results for the IC50 in assay [1] and in assay [2] were 100 to 1000 nM and 10 to 100 µM, respectively.

Regarding `Cc1cc(C(=O)NCCO)cc(-c2nc(C(=O)Nc3cnoc3)c(O)c(=O)n2C)c1` [Example 38, 5-hydroxy-2-(3-((2-hydroxyethyl)carbamoyl)-5-methylphenyl)-N-(isoxazol-4-yl)-1-methyl-6-oxo-1,6-dihydropyrimidine-4-carboxamide], the IC50 in assay [1] is 100 to 1000 nM; in assay [2] it was 10 to 100 µM.

For `Cn1c(C2CCCN(Cc3ccccc3)C2)nc(C(=O)Nc2cnoc2)c(O)c1=O` (stereo not drawn) [Example 39, 2-(1-benzylpiperidin-3-yl)-5-hydroxy-N-(isoxazol-4-yl)-1-methyl-6-oxo-1,6-dihydropyrimidine-4-carboxamide], the concentration for half-maximal inhibition (IC50) in assay [1] lay in the range of 1000 to 10000 nM; in assay [2], 10 to 100 µM.

In the case of `Cn1c(C2CCCN(C(=O)c3ccccn3)C2)nc(C(=O)Nc2cnoc2)c(O)c1=O` (stereo not drawn) [Example 40, 5-hydroxy-N-(isoxazol-4-yl)-1-methyl-6-oxo-2-(1-picolinoylpiperidin-3-yl)-1,6-dihydropyrimidine-4-carboxamide], the figures for the IC50 in assay [1] and in assay [2] were 100 to 1000 nM and 1 to 10 µM, respectively.

Take `COc1ccccc1C(=O)N1CCCC(c2nc(C(=O)Nc3cnoc3)c(O)c(=O)n2C)C1` (stereo not drawn) [Example 41, 5-hydroxy-N-(isoxazol-4-yl)-2-(1-(2-methoxybenzoyl)piperidin-3-yl)-1-methyl-6-oxo-1,6-dihydropyrimidine-4-carboxamide]: the results for the IC50 in assay [1] and in assay [2] were 100 to 1000 nM and 10 to 100 µM, respectively.

In the case of `Cn1c(-c2cnn(Cc3ccccc3)c2)nc(C(=O)Nc2cnoc2)c(O)c1=O` [Example 42, 2-(1-benzyl-1H-pyrazol-4-yl)-5-hydroxy-N-(isoxazol-4-yl)-1-methyl-6-oxo-1,6-dihydropyrimidine-4-carboxamide], the IC50 lay in the range of 100 to 1000 nM in assay [1] and 10 to 100 µM in assay [2].

With `Cn1c(C2CCCN(C(=O)CCc3ccccc3)C2)nc(C(=O)Nc2cnoc2)c(O)c1=O` (stereo not drawn) [Example 43, 5-hydroxy-N-(isoxazol-4-yl)-1-methyl-6-oxo-2-(1-(3-phenylpropanoyl)piperidin-3-yl)-1,6-dihydropyrimidine-4-carboxamide], the IC50 in assay [1] was under 100 nM; in assay [2] it was 1 to 10 µM.

Consider `Cc1cccc(-c2nc(C(=O)Nc3cnoc3)c(O)c(=O)n2C)c1` [Example 44, 5-hydroxy-N-(isoxazol-4-yl)-1-methyl-6-oxo-2-(m-tolyl)-1,6-dihydropyrimidine-4-carboxamide], for which the IC50 lay in the range of 100 to 1000 nM in assay [1] and 10 to 100 µM in assay [2].
